Assays:
[1] = target: Beta Secretase enzyme (BACE) (Homo sapiens, UniProt P56817); test: In vitro enzymatic BACE FRET assay; assay type: biochemical; conditions: average IC50; read-out: BACE1 FRET assay IC50
In short: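 Enzyme (0.2 nM) pre-incubated 1 h with serially diluted inhibitors in 0.05 M acetate pH 4.2, 10% DMSO, 100 uM genapol. Reaction started with 50 nM fluorophore/quencher peptide FRET substrate, run 1 h, stopped with Tris to neutral pH. Fluorescence read at excitation 488 nm, […].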

[2] = test system: Aβ 40 in conditioned medium of cells stably expressing Amyloid Precursor Protein (APP); test: In vitro BACE cell-based assay (Aβ 40 sandwich ELISA); conditions: Homo sapiens, HEK293; HEK cells; average IC50
In short: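 APP-expressing cells, 24 h pre-culture in DMEM/10% FBS, treated 24 h with 10-point compound dilutions from 100 or 10 μM top, 0.1% DMSO final. Secreted Aβ40 quantified by sandwich ELISA (pAb40 capture, biotinylated 6E10 detection, europium TRF); IC50 from percent inhibition versus concentration.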

Cathepsin D (Cat D) = Cathepsin D (Cat D) (Homo sapiens, UniProt P07339); test: In vitro enzymatic Cathepsin D (Cat D) FRET assay; assay type: biochemical; conditions: read-out: CatD IC50
In short: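 Recombinant CHO-expressed enzyme (9 nM) pre-incubated 1 h with serially diluted inhibitor in 0.05 M citrate pH 3.5, 10% DMSO final, 5 mM CHAPS. Reaction started with 20 nM FRET peptide substrate, run 1 h, stopped with Tris to neutral pH; fluorescence read at ex 500/em 580 nm.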

Sequence of Beta Secretase enzyme (BACE) (P56817 46-501): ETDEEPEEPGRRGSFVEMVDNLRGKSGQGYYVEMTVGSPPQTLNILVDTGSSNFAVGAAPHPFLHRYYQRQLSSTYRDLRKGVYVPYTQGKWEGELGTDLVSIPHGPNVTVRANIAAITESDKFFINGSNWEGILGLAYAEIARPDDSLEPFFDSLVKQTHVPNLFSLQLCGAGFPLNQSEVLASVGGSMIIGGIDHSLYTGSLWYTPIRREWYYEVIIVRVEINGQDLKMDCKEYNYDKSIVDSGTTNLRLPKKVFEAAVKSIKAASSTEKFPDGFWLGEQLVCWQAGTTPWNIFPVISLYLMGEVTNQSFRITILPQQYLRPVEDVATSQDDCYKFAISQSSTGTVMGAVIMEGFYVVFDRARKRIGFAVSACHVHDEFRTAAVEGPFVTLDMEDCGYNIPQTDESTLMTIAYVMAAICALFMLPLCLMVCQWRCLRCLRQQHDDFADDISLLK
Sequence of Cathepsin D (Cat D) (P07339 65-412, species assumed): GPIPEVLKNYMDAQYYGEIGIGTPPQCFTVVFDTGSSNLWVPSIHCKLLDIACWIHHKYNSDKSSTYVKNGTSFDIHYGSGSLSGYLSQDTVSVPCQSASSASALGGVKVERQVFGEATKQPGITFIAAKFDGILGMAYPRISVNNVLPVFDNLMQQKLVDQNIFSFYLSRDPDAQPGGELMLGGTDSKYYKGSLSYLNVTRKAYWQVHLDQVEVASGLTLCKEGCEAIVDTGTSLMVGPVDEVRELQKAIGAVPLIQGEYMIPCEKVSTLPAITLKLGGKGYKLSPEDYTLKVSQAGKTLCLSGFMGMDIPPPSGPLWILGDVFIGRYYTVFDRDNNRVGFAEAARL

Row | IC50 [1] | IC50 [2] | IC50 (Cathepsin D (Cat D)) | SMILES
1 | 0.006 µM | 0.004 µM | 1070 µM | CC1(C)C(N)=N[C@]2(C)c3cc(NC(=O)c4ccc(C(F)(F)F)cn4)ccc3OCC[C@H]2S1(=O)=O [Example 165, N-((4aR,11bR)-2-amino-3,3,11b-trimethyl-4,4-dioxido-4a,5,6,11b-tetrahydro-3H-[1]benzoxepino[4,5-b][1,4]thiazin-10-yl)-5-(trifluoromethyl)-2-pyridinecarboxamide]
2 | 0.017 µM | 0.0074 µM | 1130 µM | COc1cnc(C(=O)Nc2ccc3c(c2)[C@@]2(C)N=C(N)C(C)(C)S(=O)(=O)[C@@H]2CCO3)cn1 [Example 166, N-((4aR,11bR)-2-amino-3,3,11b-trimethyl-4,4-dioxido-4a,5,6,11b-tetrahydro-3H-[1]benzoxepino[4,5-b][1,4]thiazin-10-yl)-5-methoxy-2-pyrazinecarboxamide]
3 | 0.008 µM | 0.029 µM | 384 µM | CC1(C)C(N)=N[C@]2(C)c3cc(Nc4ncnc5cc(OCC6CC6)cnc45)ccc3OCC[C@H]2S1(=O)=O [Example 167, (4aR,11bR)-N1^~10^~-(7-(cyclopropylmethoxy)pyrido[3,2-d]pyrimidin-4-yl)-3,3,11b-trimethyl-4a,5,6,11b-tetrahydro-3H-[1]benzoxepino[4,5-b][1,4]thiazine-2,10-diamine 4,4-dioxide]
4 | 0.002 µM | 0.003 µM | > 44.4 µM | CC1(C)C(N)=N[C@]2(C)c3cc(Nc4nccc5cc(C#N)cnc45)ccc3OCC[C@H]2S1(=O)=O [Example 168, 8-(((4aR,11bR)-2-amino-3,3,11b-trimethyl-4,4-dioxido-4a,5,6,11b-tetrahydro-3H-[1]benzoxepino[4,5-b][1,4]thiazin-10-yl)amino)-1,7-naphthyridine-3-carbonitrile]
5 | 0.001 µM | 0.004 µM | 1620 µM | CC1(C)C(N)=N[C@]2(C)c3cc(NC(=O)c4cnc(OCC(F)(F)F)cn4)ccc3OCC[C@H]2S1(=O)=O [Example 169, N-((4aR,11bR)-2-amino-3,3,11b-trimethyl-4,4-dioxido-4a,5,6,11b-tetrahydro-3H-[1]benzoxepino[4,5-b][1,4]thiazin-10-yl)-5-(2,2,2-trifluoroethoxy)-2-pyrazinecarboxamide]
6 | 0.014 µM | 0.026 µM | 2050 µM | Cc1cc(OCC2CC2)cnc1C(=O)Nc1ccc2c(c1)[C@@]1(C)N=C(N)C(C)(C)S(=O)(=O)[C@@H]1CCO2 [Example 170, N-((4aR,11bR)-2-amino-3,3,11b-trimethyl-4,4-dioxido-4a,5,6,11b-tetrahydro-3H-[1]benzoxepino[4,5-b][1,4]thiazin-10-yl)-5-(cyclopropylmethoxy)-3-methyl-2-pyridinecarboxamide]
7 | 0.003 µM | 0.01 µM | > 14.8 µM | CC1(C)C(N)=N[C@]2(C)c3cc(Nc4ncc(F)c5cc(C#N)cnc45)ccc3OCC[C@H]2S1(=O)=O [Example 171, 8-(((4aR,11bR)-2-amino-3,3,11b-trimethyl-4,4-dioxido-4a,5,6,11b-tetrahydro-3H-[1]benzoxepino[4,5-b][1,4]thiazin-10-yl)amino)-5-fluoro-1,7-naphthyridine-3-carbonitrile]
8 | 0.012 µM | 0.004 µM | > 400 µM | CC1(C)C(N)=N[C@]2(C)c3cc(NC(=O)c4ncc(C(F)F)cc4Cl)ccc3OCC[C@H]2S1(=O)=O [Example 172, N-((4aR,11bR)-2-amino-3,3,11b-trimethyl-4,4-dioxido-4a,5,6,11b-tetrahydro-3H-[1]benzoxepino[4,5-b][1,4]thiazin-10-yl)-3-chloro-5-(difluoromethyl)-2-pyridinecarboxamide]
9 | 0.005 µM | 0.007 µM | > 400 µM | COc1cnc(C(=O)Nc2ccc3c(c2)[C@@]2(C)N=C(N)C(C)(C)S(=O)(=O)[C@@H]2CCO3)c(Cl)c1 [Example 173, N-((4aR,11bR)-2-amino-3,3,11b-trimethyl-4,4-dioxido-4a,5,6,11b-tetrahydro-3H-[1]benzoxepino[4,5-b][1,4]thiazin-10-yl)-3-chloro-5-methoxy-2-pyridinecarboxamide]
10 | 0.002 µM | 0.002 µM | 1070 µM | CC1(C)C(N)=N[C@]2(C)c3cc(NC(=O)c4ncc(C#N)cc4Cl)ccc3OCC[C@H]2S1(=O)=O [Example 174, N-((4aR,11bR)-2-amino-3,3,11b-trimethyl-4,4-dioxido-4a,5,6,11b-tetrahydro-3H-[1]benzoxepino[4,5-b][1,4]thiazin-10-yl)-3-chloro-5-cyano-2-pyridinecarboxamide]
11 | 0.009 µM | 0.017 µM | 1510 µM | CC1(C)C(N)=N[C@]2(C)c3cc(NC(=O)c4ccc(OCC5CC5)cn4)ccc3OCC[C@H]2S1(=O)=O [Example 175, N-((4aR,11bR)-2-amino-3,3,11b-trimethyl-4,4-dioxido-4a,5,6,11b-tetrahydro-3H-[1]benzoxepino[4,5-b][1,4]thiazin-10-yl)-5-(cyclopropylmethoxy)-2-pyridinecarboxamide]
12 | 0.008 µM | 0.011 µM | 186 µM | CC1(C)C(N)=N[C@]2(C)c3cc(Nc4ncnc5cc(Cl)cnc45)ccc3OCC[C@H]2S1(=O)=O [Example 176, (4aR,11bR)-N^~10^~-(7-chloropyrido[3,2-d]yrimidin-4-yl)-3,3,11b-trimethyl-4a,5,6,11b-tetrahydro-3H-[1]benzoxepino[4,5-b][1,4]thiazine-2,10-diamine 4,4-dioxide]
13 | 0.018 µM | 0.111 µM | 314 µM | COc1cnc2c(Nc3ccc4c(c3)[C@@]3(C)N=C(N)C(C)(C)S(=O)(=O)[C@@H]3CCO4)ncc(F)c2c1 [Example 177, (4aR,11bR)-N^~10^~-(5-fluoro-3-methoxy-1,7-naphthyridin-8-yl)-3,3,11b-trimethyl-4a,5,6,11b-tetrahydro-3H-[1]benzoxepino[4,5-b][1,4]thiazine-2,10-diamine 4,4-dioxide]
14 | 0.01 µM | 0.028 µM | 586 µM | Cc1nc(OCC2CC2)cnc1C(=O)Nc1ccc2c(c1)[C@@]1(C)N=C(N)C(C)(C)S(=O)(=O)[C@@H]1CCO2 [Example 178, N-((4aR,11bR)-2-amino-3,3,11b-trimethyl-4,4-dioxido-4a,5,6,11b-tetrahydro-3H-benzo[6,7]oxepino[4,5-b][1,4]thiazin-10-yl)-5-(cyclopropylmethoxy)-3-methylpyrazine-2-carboxamide]
15 | 0.066 µM | 0.035 µM | 705 µM | CC1(C)C(N)=N[C@]2(C)c3cc(NC(=O)c4ccc(C5CC5)cn4)ccc3OCC[C@H]2S1(=O)=O [Example 179, N-((4aR,11bR)-2-amino-3,3,11b-trimethyl-4,4-dioxido-4a,5,6,11b-tetrahydro-3H-[1]benzoxepino[4,5-b][1,4]thiazin-10-yl)-5-cyclopropyl-2-pyridinecarboxamide]
16 | 0.003 µM | 0.005 µM | 90.4 µM | Cc1cc(Cl)cnc1C(=O)Nc1ccc2c(c1)[C@@]1(C)N=C(N)C(C)(C)S(=O)(=O)[C@@H]1C[C@@H](C)O2 [Example 180, N-((4aR,6R,11bR)-2-amino-3,3,6,11b-tetramethyl-4,4-dioxido-4a,5,6,11b-tetrahydro-3H-[1]benzoxepino[4,5-b][1,4]thiazin-10-yl)-5-chloro-3-methyl-2-pyridinecarboxamide]
17 | 0.001 µM | 0.0008 µM | 124 µM | Cc1cc(Cl)cnc1C(=O)Nc1ccc2c(c1)[C@@]1(C)N=C(N)C(C)(C)S(=O)(=O)[C@H]1C[C@@H](C)O2 [Example 181, N-((4aS,6R,11bR)-2-amino-3,3,6,11b-tetramethyl-4,4-dioxido-4a,5,6,11b-tetrahydro-3H-[1]benzoxepino[4,5-b][1,4]thiazin-10-yl)-5-chloro-3-methyl-2-pyridinecarboxamide]
18 | 0.003 µM | 0.014 µM | > 400 µM | CC#CCOc1cnc2c(Nc3ccc4c(c3)C3(C)N=C(N)C(C)(C)S(=O)(=O)C3CCO4)nccc2c1 [Example 182, (4aR,11bR)-N^~10^~-(3-(2-butyn-1-yloxy)-1,7-naphthyridin-8-yl)-3,3,11b-trimethyl-4a,5,6,11b-tetrahydro-3H-[1]benzoxepino[4,5-b][1,4]thiazine-2,10-diamine 4,4-dioxide]
19 | 0.009 µM | 0.003 µM | 44 µM | Cc1cc(Cl)cnc1C(=O)Nc1ccc2c(c1)[C@@]1(C)N=C(N)C(C)(C)S(=O)(=O)[C@H]1C[C@H](C)O2 [Example 183, N-((4aS,6S,11bR)-2-amino-3,3,6,11b-tetramethyl-4,4-dioxido-4a,5,6,11b-tetrahydro-3H-[1]benzoxepino[4,5-b][1,4]thiazin-10-yl)-5-chloro-3-methyl-2-pyridinecarboxamide]
20 | 0.008 µM | 0.004 µM | 403 µM | Cc1cc(Cl)cnc1C(=O)Nc1ccc2c(c1)[C@@]1(C)N=C(N)C(C)(C)S(=O)(=O)[C@H]1CC(C)(C)O2 [Example 184, N-((4aS,11bR)-2-amino-3,3,6,6,11b-pentamethyl-4,4-dioxido-4a,5,6,11b-tetrahydro-3H-[1]benzoxepino[4,5-b][1,4]thiazin-10-yl)-5-chloro-3-methyl-2-pyridinecarboxamide]

Reference: US9309263B2, “Fused multi-cyclic sulfone compounds as inhibitors of beta-secretase and methods of use thereof” (AMGEN INC., priority 2013, dated 2016)
